In article PMC9822434, “Estradiol-Based Salicylaldehyde (Thio)Semicarbazones and Their Copper Complexes with Anticancer, Antibacterial and Antioxidant Activities” (Molecules, 2022):

Experiments:
E. faecalis ATCC 29212 = test: MIC determination; format: cell-based, Enterococcus faecalis; conditions: Gram-positive E. faecalis ATCC 29212, Mueller Hinton Broth
Procedure: (§1) Klebsiella pneumoniae (ATCC 49619), Escherichia coli (ATCC 25922), Staphylococcus aureus (ATCC 25928) and Enterococcus faecalis (ATCC 29212) strains were used as Gram-negative and Gram-positive bacterial cultures. The stock solutions of the tested compounds (dissolved in 90% (v/v) DMSO/H2O at 10 mM concentration) were diluted in 100 μL of Mueller Hinton Broth, and then two-fold serial dilutions were performed. As a starting point, 100 μM concentration of the compounds was used. Then, 10^−4 dilution of an overnight bacterial culture in 100 μL of medium was added to each well, with the exception of the medium control wells. Minimum inhibitory concentration (MIC) values of compounds were determined according to our previous work.

[1] = cyclic voltammetry of Cu(II)-(T)SC (1:1) systems; format: physicochemical; conditions: 90% (v/v) DMSO/H2O, pH 7.40 (10 mM HEPES), 10 mV/s, 25 °C, I = 0.1 M (nBu4NPF6)
Procedure: Cyclic voltammograms of TSCs derivatives and their Cu(II) complexes at 25.0 ± 0.1 °C were recorded. nBu4NPF6 was used as a supporting electrolyte, and measurements were performed at pH 7.4. The complexes were obtained by mixing the ligand dissolved in DMSO with aqueous solution of CuCl2 in 1:1 ratio. The final concentration of stock was 1 mM. Measurements were performed on a conventional three-electrode system under argon atmosphere using an Autolab PGSTAT 204 potentiostat/galvanostat monitored with Metrohm’s Nova software. Samples were purged for 10 min with argon before recording the cyclic voltammograms. Platinum electrode was used as the working and auxiliary electrode and Ag/AgCl/3 M KCl as the reference electrode. The electrochemical system was calibrated with an aqueous solution of K3[Fe(CN)6] (E1/2 = +0.458 V vs. NHE). Redox potentials were obtained at 10 mV/s scan rate in the range of −1.3 to +0.8 V.

MCF-7 = test: MTT cytotoxicity assay; format: cell-based, human; conditions: MCF-7, MTT, 24 h incubation time
Procedure: (§2) To test the biological effects of the Cu(II) complexes and the ligands on human cancer cells, DU-145 prostate, A549 lung, and MCF-7 breast adenocarcinoma cells, as well as the multidrug-resistant MCF-7 KCR breast cancer cells were utilized. All the cell lines were maintained in RPMI-1640 media (Biosera, Nuaille, France) complemented with 10% fetal bovine serum (FBS), 2 mM L-glutamine, 0.01% streptomycin and 0.005% penicillin, (Biosera, Nuaille, France) and were cultured under standard conditions in a 37 °C incubator at 5% CO2 and 95% humidity. The cell lines were originally obtained from ATCC.
(§3) The effect of the complexes and of their ligands alone on the viability (on the metabolic activity) of human cancer cells was assessed by MTT assay. The tested compounds were dissolved in 90% (v/v) DMSO/H2O at 10 mM concentration. Equimolar solutions of the ligand CuCl2 salt were used for the cytotoxicity assays. The metal salts without ligands were also tested. For this, 1 × 10^4 cells/well were seeded into 96-well plates and left to grow overnight. On the following day, cells were exposed to increasing concentrations of each compound (0; 2.5; 5; 10; 15; 20 µM). After a 24 h incubation, cells were washed with PBS buffer and then incubated with 0.5 mg/mL MTT (Sigma-Aldrich, St Louis, Missouri, MO, USA) for 1 h at 37 °C. The formazan crystals were solubilized in DMSO (Molar Chemicals, Halásztelek, Hungary), and the absorbance of samples was determined at 570 nm using a Synergy HTX plate reader (BioTek, Winooski, Vermont, VT, USA). Absorption corresponding to the untreated control samples was considered as 100%.

MCF-7 KCR = test: MTT cytotoxicity assay; format: cell-based, human
Procedure: as §2, §3

A549 = test: MTT cytotoxicity assay; format: cell-based, human; conditions: 24 h incubation time
Procedure: as §2, §3

DU-145 = test: MTT cytotoxicity assay; format: cell-based, human; conditions: DU-145, MTT, 24 h incubation time
Procedure: as §2, §3

[2] = DPPH free radical scavenging assay; conditions: for TEAC (Trolox equivalent antioxidant capacity): DPPH assay in ethanol; for TEAC (Trolox equivalent antioxidant capacity) / % Scavenging Effect: 25 °C; for % Scavenging Effect: DPPH:compound = 1:1 ratio after 30 min, ethanol; for IC50: in ethanol, T = 25 °C, cDPPH = 50 µM, ccompound = 5−50 µM
Procedure: The DPPH (Sigma-Aldrich) free radical scavenging capacity was studied at 25.0 ± 0.1 °C on an Agilent Cary 3500 spectrophotometer with tightly closed tandem cuvette according to our approach with some modifications. The stock solution of DPPH (100 µM) was prepared in ethanol, and 0.5 mL of this solution was added to one pocket of the cuvette and 0.5 mL of the tested compound in different concentrations in ethanol was added to another. The final concentration of the studied compounds was in the range 5–50 µM, where for DPPH concentration, it was always 50 µM. A standard compound Trolox (Sigma-Aldrich) was used as a positive control. The percentage of the antioxidant activity (AA), IC50 values (the concentration of compound at which it reduced 50% of DPPH) and Trolox equivalent antioxidant capacity (TEAC) were calculated.

S. aureus ATCC 25928 = test: MIC determination; format: cell-based, Staphylococcus aureus; conditions: Gram-positive S. aureus ATCC 25928, Mueller Hinton Broth
Procedure: as §1

[3] = format: physicochemical; conditions: for logβ [CuLH−1] / logβ [CuL]+: Cu(II) complex of the named ligand, 30% (v/v) DMSO/H2O, T = 25.0 °C, I = 0.1 M (KCl); for pCu5.0: calculated at pH 5.0, cCu(II) = 20 µM; for pCu5.0 / pCu6.0 / pCu7.4: cligand = 20 µM; for pCu6.0: estimated at pH 6.0, cCu(II) = 20 µM; for pCu7.4: estimated at pH 7.4, cCu(II) = 20 µM
Procedure: (§4) An Orion 710A pH-meter equipped with a Metrohm combined electrode (type 6.0234.100) and a Metrohm 665 Dosimat burette were used for the UV–vis titrations at 25.0 ± 0.1 °C. Ionic strength of 0.10 M (KCl) was used to keep the activity coefficients constant. The titrations were performed with carbonate-free KOH solution of known concentration (0.10 M) with 30% (v/v) DMSO content. […] The average water ionization constant (pKw) is 14.54 ± 0.05 in the 30% (v/v) DMSO/H2O mixture. Argon was always passed over the solutions during the titrations. An Agilent Cary 8454 diode array spectrophotometer was used to record the UV–vis spectra at an interval of 200–800 nm. The path length was 2 cm. Spectrophotometric titrations were performed using a 0.1 M KOH titrant solution with 30% (v/v) DMSO on samples with 30% (v/v) DMSO containing HCl, KCl and the ligand at 20 μM concentration in the pH range 2.0–12.5 in the absence or in the presence of 1 or 0.5 equiv. Cu(II) ions. Proton dissociation constants (Ka) of the TSC ligands, the overall stability constants (β) of the Cu(II) complexes and the UV–vis spectra of the individual species were calculated by the computer program PSEQUAD [41] as was done in our previous works.

[4] = direct redox reaction of the Cu(II) complexes with GSH (UV–vis, anaerobic); format: physicochemical; conditions: Cu(II) complex (25 µM) of the named ligand with GSH (1.25 mM), pH 7.4, anaerobic, 30% (v/v) DMSO/H2O, 25.0 °C
Procedure: The redox reaction of the Cu(II) complexes with GSH and ascorbic acid was studied at 25.0 ± 0.1 °C, at pH 7.40 (10 mM HEPES with 0.1 M KCl) on an Agilent Cary 8454 diode array spectrophotometer using a special, tightly closed tandem cuvette (Hellma Tandem Cell, 238-QS). The complex and the reducing agent were separated until the reaction was triggered. Both isolated pockets of the tandem cuvette were completely deoxygenated by bubbling argon for 10 min before mixing the reactants. Spectra were recorded before and then immediately after the mixing, and changes were followed till no further absorbance change was observed. The stock solutions of the reducing agents and the complexes were freshly prepared every day.
During the calculations, the absorbance (A)−time (t) curves were fitted and analyzed at the λmax of the complex. (A0 − Afinal) × e ^(−a×t) + Afinal equation was used where A0, Afinal and a parameters were refined and accepted at the minimal value of the weighted sum of squared residuals (difference between the measured and calculated absorbance values) at the given wavelength. Then observed rate constants (kobs) of the redox reaction were obtained from the data points of the simulated absorbance–time curves as the slope of the ln(A/A0) versus t plots.

physchem = format: physicochemical
Procedure: as §4

[5] = Enterococcus faecalis, ATCC29212
[6] = Homo sapiens, MCF7, 24 h incubation time
[7] = Staphylococcus aureus, ATCC25928

| Structure (SMILES) | MIC (E. faecalis ATCC 29212) | formal potential E’ vs. Ag/AgCl/3M KCl [1] | IC50 (MCF-7) | IC50 (MCF-7 KCR; 24 h incubation time) | IC50 (A549) | IC50 (DU-145) | TEAC (Trolox equivalent antioxidant capacity) [2] | % Scavenging Effect [2] | IC50 [2] | MIC (S. aureus ATCC 25928) | MIC (E. faecalis ATCC 29212; [5]) | pKa [CuL]+ [3] | logβ [CuLH−1] [3] | logβ [CuL]+ [3] | pCu5.0 [3] | pCu6.0 [3] | pCu7.4 [3] | kobs [4] | pKa (physchem) | IC50 (MCF-7; Homo sapiens, MCF7) | other results |
| --- | --- | --- | --- | --- | --- | --- | --- | --- | --- | --- | --- | --- | --- | --- | --- | --- | --- | --- | --- | --- | --- |
| CN(C)C([S-])=N/N=C/c1cc2c(cc1[O-])CC[C@@H]1[C@@H]2CC[C@]2(C)[C@@H](O)CC[C@@H]12.O.[Cu+2] [Cu(II)-Me2-estradiol-TSC] | 12.5 µM | +0.33 V | 10.1 ± 1.36 µM | > 20 µM | 3.44 ± 1.02 µM | 7.85 ± 1.08 µM | 0.7 | 40.4% | 16.4 µM | 0.78 µM |  |  |  |  |  |  |  |  |  |  |  |
| CNC([S-])=N/N=C/c1cc2c(cc1[O-])CC[C@@H]1[C@@H]2CC[C@]2(C)[C@@H](O)CC[C@@H]12.O.[Cu+2] [Cu(II)-Me-estradiol-TSC] | 50 µM | +0.29 V | 16.7 ± 1.66 µM | > 20 µM | 3.71 ± 1.02 µM | 15.8 ± 1.08 µM | 0.6 | 33.6% | 20.3 µM | 6.25 µM |  |  |  |  |  |  |  |  |  |  |  |
| CN(C)C(=S)NN=Cc1cc2c(cc1O)CC[C@@H]1[C@@H]2CC[C@]2(C)[C@@H](O)CC[C@@H]12 [Me2-estradiol-TSC, 2-((3,17 β-Dihydroxy-estra-1,3,5(10)-triene-2-yl)methylene)-N,N-dimethylhydrazine-1-carbothioamide] |  |  |  |  |  |  | 0.9 | 100% | 13.6 µM |  | > 100 µM | 3.85 | 10.11 ± 0.03 | 13.96 ± 0.03 | 8.0 | 9.6 | 12.4 | 0.31 ± 0.06 min⁻¹ | 9.2 ± 0.03 | > 20 µM | IC50 (MCF-7 KCR; [6]): > 20 µM; IC50 (A549; Homo sapiens): > 20 µM; IC50 (DU-145; Homo sapiens): > 20 µM; MIC (S. aureus ATCC 25928; [7]): > 100 µM |
| CNC(=S)NN=Cc1cc2c(cc1O)CC[C@@H]1[C@@H]2CC[C@]2(C)[C@@H](O)CC[C@@H]12 [Me-estradiol-TSC, 2-((3,17 β-Dihydroxy-estra-1,3,5(10)-triene-2-yl)Methylene)-N-methylhydrazine-1-carbothioamide] |  |  |  |  |  |  | 0.8 | 31.0% | 15.4 µM |  | > 100 µM | 4.08 | 9.59 ± 0.03 | 13.68 ± 0.03 | 7.6 | 9.1 | 11.8 | 0.22 ± 0.02 min⁻¹ | 9.28 ± 0.03 | > 20 µM | IC50 (MCF-7 KCR; [6]): > 20 µM; IC50 (A549; Homo sapiens): 15.8 ± 1.03 µM; IC50 (DU-145; Homo sapiens): > 20 µM; MIC (S. aureus ATCC 25928; [7]): > 100 µM |
| Cc1c(C)c2c(c(C)c1O)CCC(C)(C(=O)O)O2 (centres unmarked) [Trolox, 6-hydroxy-2,5,7,8-tetramethylchroman-2-carboxylic acid, reference compound] |  |  |  |  |  |  | 1 | 100% | 12 µM |  |  |  |  |  |  |  |  |  |  |  |  |
| C[C@]12CC[C@@H]3c4ccc(O)cc4CC[C@H]3[C@@H]1CC[C@@H]2O [estradiol] |  |  |  |  |  |  |  | 0.5% | > 50 µM |  |  |  |  |  |  |  |  |  |  |  |  |
